Measurements published in US8889123B2, “Compositions and soft tissue replacement methods” (Allergan, Inc., priority 2010, dated 2014).

How the values were obtained:
FGF-2 [1] = experiment: Oral ulcer wound model, FGF-2 up-regulation; format: in vivo
VEGF [2] = experiment: Oral ulcer wound model, VEGF up-regulation; format: in vivo
FGF-2 [3] = experiment: Incisional wound model, FGF-2 expression in skin wound tissue by Western blot; format: in vivo, Sprague-Dawley rats; details: topical 0.004% twice daily vs vehicle
Source text: (§1) To test whether the compounds of Formula I promote the formation of blood vessels, and incisional wound model was employed over a 14-day period. Sprague-Dawley rats (180-200 g) were anesthetized, the backs shaved, and a 2-cm long incision was made on the back skin of rats under sterile conditions, reaching the deep fascia. The wound was immediately closed with 4-0 sutures. The animals were topically treated with vehicle or Compound 1 at 0.004% twice daily. The vehicle contains ethanol 30%, propylene glycol 12%, dipropylene glycol 5%, benzyl alcohol 5%, glycerol 3% and normal saline 45%. Biopsy samples of skin wound tissues were analyzed with Western blots day-7 and day-14 post-surgery. Tissue samples about 1 mm thick were taken from both sides of the wound. Protein was extracted, and FGF-2/VEGF expression was monitored, with Western blot analysis.

VEGF [4] = experiment: Incisional wound model, VEGF expression in skin wound tissue by Western blot; format: in vivo, Sprague-Dawley rats; details: topical 0.004% twice daily vs vehicle
Source text: as §1

CC1(C)C(=O)[C@H](C/C=C\CCCC(=O)O)[C@@H](/C=C/[C@H](O)CCc2sc3ccccc3c2Cl)[C@@H]1O [Compound 1]
up-regulation of FGF-2 (FGF-2 [1]): up-regulation | up-regulation of VEGF (VEGF [2]): up-regulation | enhanced expression of FGF-2, normalized with β-actin (FGF-2 [3]; day-7, P=0.004): 60% | increase in FGF-2 synthesis over the whole study period (FGF-2 [3]; whole study period (day-14), P=0.04): persisted for the whole study period | VEGF expression increase, normalized with β-actin (VEGF [4]; day-7, P=0.039): 25% | increase in VEGF synthesis by day-14 (VEGF [4]; day-14): returned to the baseline
